As usually defined, the IC50 is the concentration at which inhibition is half-maximal. The low end stands for higher potency, the high end for lower potency. Broadly, the inhibition is the drop in the measured response relative to a control, in per cent. A higher inhibition goes with a response far below the control.

The record followed here is patent US4801616A, “Diphenylmethanone compounds and anti-inflammatory use thereof” (Eli Lilly and Company, priority 1986, dated 1989).

Molecules are shown by their SMILES. Bounds are passed on as bounds.

The target in experiment [1] is T1, 5-lipoxygenase (Cavia porcellus, UniProt A0A286X958).
T1 construct: incubating 0.2 ml of the supernatant obtained from the PMNL sonicate with the test compound; from tissue; host or cells: casein-elicited guinea pig peritoneal polymorphonuclear leukocytes (PMNL, more than 95 percent of the cells), sonicated, 30,000 x g supernatant
T1 sequence (A0A286X958 1-674): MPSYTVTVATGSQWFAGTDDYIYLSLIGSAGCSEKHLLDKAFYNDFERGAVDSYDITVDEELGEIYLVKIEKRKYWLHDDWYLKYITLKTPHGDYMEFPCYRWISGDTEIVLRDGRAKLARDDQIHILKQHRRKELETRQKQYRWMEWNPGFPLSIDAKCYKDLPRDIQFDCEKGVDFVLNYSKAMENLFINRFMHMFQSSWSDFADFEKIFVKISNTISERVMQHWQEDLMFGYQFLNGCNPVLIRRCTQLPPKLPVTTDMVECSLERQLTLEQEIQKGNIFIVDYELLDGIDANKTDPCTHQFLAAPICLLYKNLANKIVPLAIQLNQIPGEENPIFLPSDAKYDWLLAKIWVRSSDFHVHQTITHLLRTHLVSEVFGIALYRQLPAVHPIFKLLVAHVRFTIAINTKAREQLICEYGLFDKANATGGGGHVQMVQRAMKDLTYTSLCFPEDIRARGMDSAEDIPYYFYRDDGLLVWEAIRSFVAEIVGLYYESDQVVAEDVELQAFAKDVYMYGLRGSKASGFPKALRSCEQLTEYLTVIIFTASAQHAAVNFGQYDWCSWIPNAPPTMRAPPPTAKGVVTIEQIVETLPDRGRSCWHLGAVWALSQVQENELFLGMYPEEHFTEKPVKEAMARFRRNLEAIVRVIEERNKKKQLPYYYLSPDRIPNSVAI
Nature of the experiment: 5-Lipoxygenase (5-LPO) Assay, inhibition of 5-HETE formation in PMNL sonicate supernatant. In kind it is biochemical, guinea pig. The settings on record: guinea pig PMNL sonicate supernatant, 37° C., 5 μM 14C-arachidonic acid. The method, then:
5-Lipoxygenase (5-LPO) Assay
Ten milliliters of a 2% casein solution were injected intraperitoneally into guinea pigs weighing 250-300 gm. After 16-18 hours, the guinea pigs were killed by suffocation in a carbon dioxide chamber. The peritoneal cavity was infused with 70 ml of saline and 40-50 ml of the fluid were recovered from the cavity. After centrifugation, cell pellets were washed twice in Hank's balanced salt solution (HBSS) without calcium ion.
The cells were then suspended in 5 ml of sodium phosphate buffer, pH 7.1 containing 1 mM EDTA, and 0.1% gelatin. About 20-30×10^7 cells were obtained from one guinea pig.
The PMNL suspension was disrupted by five 1/2 second pulse sonications at the setting of 3 in a Branson Sonifier, Model 350, equipped with a microtip. The sonicates were combined and centrifuged at 30,000× g for 10 minutes. The supernatant was kept frozen at -70° C. until use.
Enzyme activity was determined by assaying for 5-HETE formation by first incubating 0.2 ml of the supernatant obtained from the PMNL sonicate with the test compound, 1 mM CaCl2, 2 mM ATP, and 1 mM GSH for 5 minutes at 37° C. The mixture is treated with 5 μM ^14 C-arachidonicacid and incubated at 37° C. an additional 10 minutes. The enzyme reaction was then stopped by the addition of 10 μl of 1M citric acid and 10μl of an alcohol solution containing 20 mg/ml each of indomethacin and butylated hydroxyanisole (BHA). The reaction mixture was spotted (50 μl on a silica gel plate (Baker TLC plate S1250-PA-19C) and subjected to TLC in a solvent system of ethyl acetate/2,2,4-trimethylpentane/glacial acetic acid/water (90:50:20:100).
The radioactivity of the arachidonic acid and its metabolites (5-HETE and LTB4) was visualized from a developed x-ray film which had been exposed to the TLC plate 1-2 days. The amount of 5-HETE formed was quantitated by scraping the silica gel area corresponding to the spot on the x-ray film, and the radioactivity determined in a Isocap/300 liquid scintillation counter (Searle Analytic, Inc.).
The percent inhibition of the formation of 5-HETE was determined for each concentration of test compound tested as compared to a control experiment wherein no test compound was added. The concentration and percent inhibition values were plotted on semi log paper and the concentration in which formation of 5-HETE is inhibited by 50% (IC50) was determined by interpolation.

Experiment [2] addresses T2, fatty acid cyclooxygenase (Homo sapiens, UniProt P23219).
T2 construct: The solubilized fatty acid cyclooxygenase was applied to a 440 ml electrofocusing column; from tissue; host or cells: human platelets: microsomes solubilized with Triton X-100, purified by electrofocusing and G-200 Sephadex
Nature of the experiment: Fatty Acid Cyclooxygenase (FCO) Assay, inhibition of PGE2 formation by purified human platelet enzyme. It counts as biochemical. The following applies: percent inhibition at 30 μg/ml. The protocol: Fatty Acid Cyclooxygenase (FCO) Assay
Microsomes were prepared from 185 bags of human platelets (each bag containing the platelets from one pint of blood prepared using differential centrifugation procedures). The platelets from approximately 60 bags were prepared at one time. Platelet-rich plasma (500 g) was centrifuged at 10,000×g for 20 minutes, and the platelet pellet was suspended in 100 ml of 0.1M potassium phosphate buffer, pH 8.0, with a Teflon glass homogenizer and sonicated for 5.0 minutes with a Bronson Sonifier (Model 350) in a rosette flask cooled in ice water. Disrupted platelets were centrifuged 15 minutes at 10,000× g. The supernatant was centrifuged at 100,000× g for 90 minutes and the microsomal pellets were homogenized in 25 ml of 20% sucrose containing 1.0% Triton X-100 detergent. After 30 minutes at 4° C., the solubilized microsomes were centrifuged at 100,000× g for 60 minutes. The yellow supernatant was removed and stored at -70 ° C.
The solubilized fatty acid cyclooxygenase was applied to a 440 ml electrofocusing column (LKB-8012) containing 1% phisolytes (Brinkman Instruments, Westburgh, NY), pH 2-11, with the cathode at the top of the column. The enzyme was layered onto the column at the appropriate time so that its sucrose concentration was equal to that of the column gradient. This was accomplished by checking the gradient concentration periodically with a sucrose hand refractometer. Electrofocusing was carried out for 16 hours with an initial voltage of 400 V and a final voltage of 900-1,000 volts. Fractions were collected (20 ml) and assayed for PGE2 formation. Active peak fractions were pooled and concentrated by ultrafiltration (XM 100A) to a volume of 3-5 ml.
Active fractions from electrofocusing were applied to a G-200 Sephadex column (2 cm×46 cm) and eluted with 10 mM potassium phosphate buffer, pH 7.0, in 5 ml fractions. After assay, active fractions were poored and concentrated to 1.0 ml by ultrafiltration (XM 100A), and kept frozen at -70° C.
Enzyme activity was determined by assaying for PGE2 formation by preincubating the enzyme with 10 mmol/l imidazole phosphate buffer, pH 8.0, 2 mmol/l epinephrine, 2 mmol/l methemoglobin, and the test compound (30 μg/ml) in a total volume of 0.2 ml for one minute at 37° C. After preincubation, 5 mmol/l ^14 C-arachidonic acid were added and the mixture was incubated an additional 0.5 minutes at 37° C. The enzyme reaction was stopped by the addition of 2 μl of indomethacin (2 mg/ml) in alcohol.
The reaction mixture was spotted (50 μl) on a silica gel (LQ6D) plate and subjected to TLC. The solvent system consisted of chloroform-methanol-glacial acetic acid (90:5:5, v/v/v) and the relative mobilities were PGF2α =0.235, and PGE2 =0.47. The silica gel on the plate was scraped in 1 cm sections, suspended in 5 ml of the scintillation fluid [5.88 g of 2,5-diphenyloxazole and 118 mg of 1,4 -bis(5-phenyloxazol-2-yl)benzene] dissolved in 650 ml of toluene and 350 ml of Triton X-100) and the radioactivity was determined in an Isocap/300 liquid scintillation counter (Searle Analytic, Inc., Southfield, Mich.). Another 50 μl of the mixture was added to 10 ml of the Triton X-100 based scintillation fluid, and the radioactivity was determined so that the amount of radioactivity recovery from the TLC plate could be ascertained. PGE2 formation for each test compound was determined as a percent of control experiments wherein no test compound was added. Data is expressed in Table I either as the percent inhibition of formation of PGE2 at a test compound concentration of 30 μ g/ml, or as an IC50 for inhibition of PGE2 formation.

T2 sequence (P23219 24-599): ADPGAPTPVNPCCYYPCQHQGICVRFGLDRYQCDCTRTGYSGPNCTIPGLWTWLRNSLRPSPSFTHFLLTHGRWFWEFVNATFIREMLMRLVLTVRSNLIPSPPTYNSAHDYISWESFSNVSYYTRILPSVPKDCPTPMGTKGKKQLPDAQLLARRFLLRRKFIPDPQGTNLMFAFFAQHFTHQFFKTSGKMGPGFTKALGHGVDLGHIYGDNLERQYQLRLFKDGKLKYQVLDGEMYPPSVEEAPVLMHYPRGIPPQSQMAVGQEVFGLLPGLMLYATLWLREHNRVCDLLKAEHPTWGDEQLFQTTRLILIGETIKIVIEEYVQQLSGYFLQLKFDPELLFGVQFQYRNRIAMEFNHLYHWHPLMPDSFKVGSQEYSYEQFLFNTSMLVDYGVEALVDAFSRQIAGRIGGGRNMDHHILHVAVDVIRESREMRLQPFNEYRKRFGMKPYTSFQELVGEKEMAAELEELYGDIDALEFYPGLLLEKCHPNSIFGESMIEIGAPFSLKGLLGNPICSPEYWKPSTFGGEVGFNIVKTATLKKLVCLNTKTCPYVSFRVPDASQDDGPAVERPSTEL

`CCCc1c(OCCCCc2nnn[nH]2)ccc(C(=O)c2ccccc2OC)c1OC` [Example 29, (2-Methoxyphenyl)(2-methoxy-3-propyl-4-[4-(1H-tetrazol-5-yl)butoxy]phenyl)methanone]: half-maximal inhibition in experiment [1] (IC50) required 14.1 µM. Moreover, the inhibition at 30 µg/mL in experiment [2] is < 5%.
Take `CCCc1c(OCCCCC(=O)N(CC)CC)ccc(C(=O)c2ccccc2OC)c1OC` [Example 31, N,N-Diethyl-5-[3-methoxy-4-(2-methoxybenzoyl)-2-propylphenoxy]pentanamide]: half-maximal inhibition in experiment [1] (IC50) was put at 17.6 µM. In addition, the inhibition at 30 µg/mL in experiment [2] was < 5%.
The matching figures for `CCCc1c(OCCCCc2nnnn2C)ccc(C(=O)c2ccccc2OC)c1O` [Example 33, (2-Hydroxy-4-[4-(1-methyl-1H-tetrazol-5-yl)butoxy]3-propylphenyl)(2-methoxyphenyl)methanone]: 0.707 µM and 0%.
